{"source": "patent US20190225650A1", "about": "“PEPTIDOMIMETIC MACROCYCLES AND USE THEREOF IN REGULATING HIF1ALPHA” (AILERON THERAPEUTICS, INC., priority 2013, published 2019)", "key": {"[1]": {"test_system": "HRE-bla ME-180 cells", "assay": "Cell proliferation assay (viability, MTT, 1% FBS)", "type": "cell-based, human", "method_in_brief": "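Viable cell number was measured with the CellTiter 96 (MTT) kit after compounds were applied for a 16 h normoxic (21% O2) pretreatment, followed by further normoxic or hypoxic (1% O2) culture. Cells: 2×10^4 ME-180 per well, Opti-MEM + 1% FBS, 0.5% DMSO vehicle.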"}, "[2]": {"biological_target": "T1, flag-tagged HIF1α (AA 786-826) / His6-tagged p300 (AA 323-423) complex (Homo sapiens, UniProt Q09472)", "T1 construct": "His6-tagged p300 (AA 323-423); made in house; host or cells: E. coli (pETDuet vector)", "T1 sequence (Q09472 323-423, one chain of several)": "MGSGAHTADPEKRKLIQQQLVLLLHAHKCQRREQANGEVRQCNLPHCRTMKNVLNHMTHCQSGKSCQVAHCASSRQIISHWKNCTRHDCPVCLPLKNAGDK", "assay": "HIF1α p300 displacement assay (TR FRET, +CHAPS)", "type": "binding", "conditions": "read-out: IC50 (nM) (HIF1α_p300 Displacement + CHAPS)", "method_in_brief": "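In this TR-FRET displacement format, peptides compete HIF1α C-terminal transactivation domain off p300-CH. They were preincubated 1 h at room temperature with 300 nM complex in HEPES pH 7.4/NaCl buffer with 7.5 mM CHAPS and 1 mM DTT. Anti-His-D2 (4 nM) and anti-Flag-K (0.5 μM) followed for 2 h, and a one-site fit of the fluorescence ratio gave IC50.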"}, "[3]": {"test_system": "HRE-bla ME-180 cells", "assay": "Reporter gene assay (HRE-bla ME-180 HIF reporter, GeneBLAzer)", "type": "cell-based, human", "conditions": "for EC50: 24 hour normoxia", "method_in_brief": "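A FRET β-lactamase readout of HIF transcription was used. After compound treatment in 0.3% DMSO/media under normoxic conditions, 20 μl of 6× LiveBLAzer-FRET B/G (CCF4-AM) substrate was added. Plates sat 3 hr at room temperature in the dark and were read at 409 Ex/460Em and 409Ex/530Em on a Synergy 2. Inhibition was compared against DMSO vehicle controls, with chetomin as positive control.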"}}, "note": "Bridge positions count the residues as written; N and C are the ends. Square brackets hold non-standard residues; d marks the D form. Peptide text beside a SMILES is read from it. R8 = C=CCCCCCC[C@@](C)(N)C(=O)O; S5 = C=CCCC[C@](C)(N)C(=O)O; Nle = CCCC[C@H](N)C(=O)O"}
{"smiles": "CC[C@H](C)[C@H](NC(=O)[C@H](Cc1ccccc1)NC(C)=O)C(=O)N[C@@H](CO)C(=O)N[C@@H](CCC(=O)O)C(=O)N[C@@H](CCC(=O)O)C(=O)N[C@H](C(=O)N[C@@H](CC(C)C)C(=O)N[C@@H](CCSC)C(=O)N[C@@]1(C)CCCC=CCCC[C@@](C)(C(=O)N[C@@H](CCSC)C(=O)N[C@@H](C)C(=O)N[C@@H](CC(C)C)C(N)=O)NC(=O)[C@H]([C@@H](C)CC)NC(=O)[C@H](C(C)C)NC(=O)[C@H](CC(C)C)NC1=O)C(C)C", "note": "[SP-230] (Ac-FISEEVLM[S5]LVI[S5]MAL-NH2; staple 9-13)", "values": [{"measurement": "Viability 1% FBS AVG (MTT V3-24 hr Normoxia) (μM)", "setting": "[1]", "result": "++++ (≥30: ++++)"}, {"measurement": "IC50", "setting": "[2]", "result": "400 to 700", "unit": "nM"}, {"measurement": "18 h Avg % max inhibition at top conc (HIF Rptr-24 hrs normoxia) (μM)", "setting": "[3]", "result": "+ (<10: +)"}, {"measurement": "EC50", "setting": "[3]", "result": "> 30", "unit": "µM"}]}
{"smiles": "CCCC[C@H](NC(=O)[C@]1(C)CCCC=CCCC[C@](C)(NC(=O)[C@H](CCCC)NC(=O)[C@H](CC(C)C)NC(=O)[C@@H](NC(=O)[C@H](CCC(=O)O)NC(=O)[C@H](CCC(=O)O)NC(=O)[C@H](CC(=O)O)NC(=O)[C@@H](NC(=O)[C@H](CC(N)=O)NC(=O)[C@@H](NC(=O)[C@]2(C)CCCC=CCCCCCC[C@@](C)(NC(=O)[C@H](CCC(=O)O)NC(C)=O)C(=O)N[C@@H](CC(C)C)C(=O)N[C@@H](CC(C)C)C(=O)N[C@@H](CCCNC(=N)N)C(=O)N[C@@H](C)C(=O)N[C@@H](CC(C)C)C(=O)N[C@@H](CC(=O)O)C(=O)N2)C(C)C)[C@@H](C)CC)C(C)C)C(=O)N[C@@H](CC(C)C)C(=O)N[C@@H](C(C)C)C(=O)N[C@@H]([C@@H](C)CC)C(=O)N1)C(N)=O", "note": "[SP-351] (Ac-E[R8]LLRALD[S5]VNIDEEVL[Nle][S5]LVI[S5][Nle]-NH2; staple 2-9, 19-23)", "values": [{"measurement": "Viability 1% FBS AVG (MTT V3-24 hr Normoxia) (μM)", "setting": "[1]", "result": "++++ (≥30: ++++)"}, {"measurement": "IC50", "setting": "[2]", "result": "200 to 400", "unit": "nM"}, {"measurement": "18 h Avg % max inhibition at top conc (HIF Rptr-24 hrs normoxia) (μM)", "setting": "[3]", "result": "++ (≤10 but <25: ++)"}, {"measurement": "EC50", "setting": "[3]", "result": "> 30", "unit": "µM"}]}
{"smiles": "CC[C@H](C)[C@H](NC(=O)[C@H](Cc1ccccc1)NC(C)=O)C(=O)N[C@@H](CC(=O)O)C(=O)N[C@@H](CCC(=O)O)C(=O)N[C@@]1(C)CCCC=CCCC[C@@](C)(C(=O)N[C@@H](CC(C)C)C(=O)N[C@H](C(=O)N[C@H](C(=O)N[C@@H](CCC(=O)O)C(=O)N[C@@H](CCSC)C(=O)N[C@@H](C)C(=O)N[C@@H](CC(C)C)C(N)=O)[C@@H](C)CC)C(C)C)NC(=O)[C@H](CCSC)NC(=O)[C@H](CC(C)C)NC(=O)[C@H](C(C)C)NC1=O", "note": "[SP-110] (Ac-FIDE[S5]VLM[S5]LVIEMAL-NH2; staple 5-9)", "values": [{"measurement": "Viability 1% FBS AVG (MTT V3-24 hr Normoxia) (μM)", "setting": "[1]", "result": "++++ (≥30: ++++)"}, {"measurement": "IC50", "setting": "[2]", "result": "400 to 700", "unit": "nM"}, {"measurement": "18 h Avg % max inhibition at top conc (HIF Rptr-24 hrs normoxia) (μM)", "setting": "[3]", "result": "+++ (≤25 but <50: +++)"}, {"measurement": "EC50", "setting": "[3]", "result": "> 30", "unit": "µM"}]}
{"smiles": "CCCC[C@H](NC(=O)[C@H](CC(C)C)NC(=O)[C@@H](NC(=O)[C@H](CCC(=O)O)NC(=O)[C@H](CCC(=O)O)NC(=O)[C@H](CC(=O)O)NC(=O)[C@@H](NC(=O)[C@H](CC(N)=O)NC(=O)[C@@H](NC(=O)[C@H](CCC(N)=O)NC(=O)[C@]1(C)CCCC=CCCC[C@](C)(NC(=O)[C@H](CC(C)C)NC(=O)[C@H](CCC(=O)O)NC(=O)[C@H](CCC(=O)O)NC(=O)CNC(=O)[C@H](CCC(N)=O)NC(=O)[C@H](CC(C)C)NC(=O)[C@H](CC(C)C)NC(C)=O)C(=O)N[C@@H](CCCNC(=N)N)C(=O)N[C@@H](C)C(=O)N[C@@H](CC(C)C)C(=O)N1)C(C)C)[C@@H](C)CC)C(C)C)C(=O)N[C@@]1(C)CCCC=CCCC[C@@](C)(C(=O)N[C@@H](CCCC)C(=O)NCC(N)=O)NC(=O)[C@H]([C@@H](C)CC)NC(=O)[C@H](C(C)C)NC(=O)[C@H](CC(C)C)NC1=O", "note": "[SP-308] (Ac-LLQGEEL[S5]RAL[S5]QVNIDEEVL[Nle][S5]LVI[S5][Nle]G-NH2; staple 8-12, 23-27)", "values": [{"measurement": "Viability 1% FBS AVG (MTT V3-24 hr Normoxia) (μM)", "setting": "[1]", "result": "++++ (≥30: ++++)"}, {"measurement": "IC50", "setting": "[2]", "result": "200 to 400", "unit": "nM"}, {"measurement": "18 h Avg % max inhibition at top conc (HIF Rptr-24 hrs normoxia) (μM)", "setting": "[3]", "result": "++++ (≥50: ++++)"}, {"measurement": "EC50", "setting": "[3]", "result": "15 to 30", "unit": "µM"}]}
{"smiles": "CC[C@H](C)[C@H](NC(=O)[C@H](CCCNC(=N)N)NC(=O)[C@H](CC(N)=O)NC(=O)[C@H](CC(C)C)NC(=O)[C@H](C)NC(=O)[C@H](CCSC)NC(=O)[C@]1(C)CCCC=CCCC[C@](C)(NC(=O)[C@H](CCSC)NC(=O)[C@H](CC(C)C)NC(=O)[C@@H](NC(=O)[C@H](C)NC(=O)[C@H](CCC(N)=O)NC(=O)[C@H](CC(N)=O)NC(=O)[C@@H](NC(=O)[C@H](Cc2ccccc2)NC(C)=O)[C@@H](C)CC)C(C)C)C(=O)N[C@@H](CC(C)C)C(=O)N[C@@H](C(C)C)C(=O)N[C@@H]([C@@H](C)CC)C(=O)N1)C(N)=O", "note": "[SP-272] (Ac-FINQAVLM[S5]LVI[S5]MALNRI-NH2; staple 9-13)", "values": [{"measurement": "Viability 1% FBS AVG (MTT V3-24 hr Normoxia) (μM)", "setting": "[1]", "result": "++ (≤5 but <15: ++)"}, {"measurement": "IC50", "setting": "[2]", "result": "> 700", "unit": "nM"}, {"measurement": "18 h Avg % max inhibition at top conc (HIF Rptr-24 hrs normoxia) (μM)", "setting": "[3]", "result": "++++ (≥50: ++++)"}, {"measurement": "EC50", "setting": "[3]", "result": "≤ 5", "unit": "µM"}]}
